Experimental data: patent US20150105252A1, “SUBSTITUTED PYRAZOLES AS HERBICIDES” (E I DU PONT DE NEMOURS AND COMPANY, priority 2013, published 2015)

Columns and labels:
[1] = tested on: barnyardgrass; experiment: Test A postemergence; type: in vivo, Echinochloa crus-galli; conditions: Postemergence
From the text: (§1) Seeds of plant species selected from barnyardgrass (Echinochloa crus-galli), kochia (Kochia scoparia), common ragweed (Ambrosia elation), Italian ryegrass (Lolium multiflorum), crabgrass, large (large crabgrass, Digitaria sanguinalis), foxtail, giant (giant foxtail, Setaria faberii), morningglory (Ipomoea spp.), pigweed (redroot pigweed, Amaranthus retroflexus), velvetleaf (Abutilon theophrasti), wheat (Triticum aestivum), and corn (Zea mays) were planted into a blend of loam soil and sand and treated preemergence with a directed soil spray using test chemicals formulated in a non-phytotoxic solvent mixture which included a surfactant.
(§2) At the same time, plants selected from these crop and weed species and also blackgrass (Alopecurus myosuroides), and galium (catchweed bedstraw, Galium aparine) were planted in pots containing the same blend of loam soil and sand and treated with postemergence applications of test chemicals formulated in the same manner. Plants ranged in height from 2 to 10 cm and were in the one- to two-leaf stage for the postemergence treatment. Treated plants and untreated controls were maintained in a greenhouse for approximately 10 days, after which time all treated plants were compared to untreated controls and visually evaluated for injury. Plant response ratings, summarized in Table A, are based on a 0 to 100 scale where 0 is no effect and 100 is complete control. A dash (-) response means no test result.

[2] = tested on: velvetleaf; experiment: Test A postemergence; type: in vivo, Abutilon theophrasti
From the text: as §1, §2

[3] = tested on: morningglory; experiment: Test A preemergence; type: in vivo, Ipomoea spp.; conditions: 0 to 100 scale
From the text: as §1, §2

[4] = tested on: crabgrass, large; experiment: Test A postemergence; type: in vivo, Digitaria sanguinalis
From the text: as §1, §2

[5] = tested on: crabgrass, large; experiment: Test A preemergence; type: in vivo, Digitaria sanguinalis; conditions: 0 to 100 scale
From the text: as §1, §2

[6] = tested on: barnyardgrass; experiment: Test A preemergence; type: in vivo, Echinochloa crus-galli; conditions: 0 to 100 scale
From the text: as §1, §2

[7] = tested on: morningglory; experiment: Test A postemergence; type: in vivo, Ipomoea spp.
From the text: as §1, §2

[8] = tested on: velvetleaf; experiment: Test A preemergence; type: in vivo, Abutilon theophrasti; conditions: 0 to 100 scale
From the text: as §1, §2

[9] = tested on: wheat; experiment: Test A preemergence; type: in vivo, Triticum aestivum; conditions: preemergence, 125 g ai/ha; visual injury, 0 to 100 scale, approx. 10 days
From the text: as §1, §2

[10] = tested on: foxtail, giant; experiment: Test A postemergence; type: in vivo, Setaria faberii
From the text: as §1, §2

[11] = tested on: corn; experiment: Test A preemergence; type: in vivo, Zea mays; conditions: 0 to 100 scale
From the text: as §1, §2

[12] = tested on: pigweed; experiment: Test A preemergence; type: in vivo, Amaranthus retroflexus; conditions: 0 to 100 scale
From the text: as §1, §2

[13] = tested on: foxtail, giant; experiment: Test A preemergence; type: in vivo, Setaria faberii; conditions: 0 to 100 scale
From the text: as §1, §2

[14] = tested on: wheat; experiment: Test A postemergence; type: in vivo, Triticum aestivum
From the text: as §1, §2

[15] = tested on: pigweed; experiment: Test A postemergence; type: in vivo, Amaranthus retroflexus
From the text: as §1, §2

[16] = tested on: corn; experiment: Test A postemergence; type: in vivo, Zea mays
From the text: as §1, §2

[17] = 1000 g ai/ha, visual rating after approx. 10 days, 0 to 100 scale (0 no effect, 100 complete control)
[18] = Postemergence, 1000 g ai/ha, visual rating after approx. 10 days, 0 to 100 scale (0 no effect, 100 complete control)
[19] = Preemergence, 2000 g ai/ha, 0 no effect, 100 complete control
[20] = 125 g ai/ha, 0 to 100 scale, 0 no effect, 100 complete control
[21] = 500 g ai/ha, visual rating after approx. 10 days, 0 to 100 scale (0 no effect, 100 complete control)
[22] = Postemergence, 500 g ai/ha, visual rating after approx. 10 days, 0 to 100 scale (0 no effect, 100 complete control)
[23] = postemergence, 125 g ai/ha, about 10 days, visual rating on 0 to 100 scale (0 no effect, 100 complete control)
[24] = Preemergence, 500 g ai/ha, 0 no effect, 100 complete control
[25] = preemergence, 125 g ai/ha, visual injury, approx. 10 days

For `Cc1cc(C(=O)NC(C)(C)C)nn1Cc1cccc(C(F)(F)F)c1` [Compound 1], the “Barnyardgrass plant response rating” value [1, 17] was 30, the “Velvetleaf plant response rating” value [2, 18] was 30 and the “Morningglory plant response rating” value [3, 19] was 0. For the same compound, the “Crabgrass, Large plant response rating” value [4, 18] was 30, the “Crabgrass, Large plant response rating” value [5, 19] was 10 and the “Barnyardgrass plant response rating” value [6, 19] was 10. The “Morningglory plant response rating” value [7, 18] was 20 and the “Velvetleaf plant response rating” value [8, 19] was 0.

In the case of `Cc1cc(C(=O)NC2CC2)nn1Cc1cccc(C(F)(F)F)c1` [Compound 2], the “Barnyardgrass plant response rating” value [1, 17] is reported as 50, the “Velvetleaf plant response rating” value [2, 18] is reported as 70 and the “Morningglory plant response rating” value [3, 19] is reported as 100. For the same compound, the “Crabgrass, Large plant response rating” value [4, 18] was 50, the “Crabgrass, Large plant response rating” value [5, 19] was 100 and the “Barnyardgrass plant response rating” value [6, 19] was 90. For the same compound, the “Morningglory plant response rating” value [7, 18] was 80 and the “Velvetleaf plant response rating” value [8, 19] was 100.

In the case of `Cc1cc(C(=O)NCC(F)(F)C(F)(F)F)nn1Cc1cccc(OC(F)(F)F)c1` [Compound 6], the “Barnyardgrass plant response rating” value [1, 20] is reported as 0, the “Barnyardgrass plant response rating” value [1, 21] is reported as 10 and the “Wheat plant response rating” value [9] is reported as 0. For the same compound, the “Foxtail, Giant plant response rating” value [10, 22] was 20, the “Foxtail, Giant plant response rating” value [10, 23] was 10 and the “Corn plant response rating” value [11, 24] was 0. The “Corn plant response rating” value [11, 25] was 0, the “Pigweed plant response rating” value [12, 24] was 50 and the “Pigweed plant response rating” value [12, 25] was 30. The “Foxtail, Giant plant response rating” value [13, 24] was 20, the “Foxtail, Giant plant response rating” value [13, 25] was 0 and the “Velvetleaf plant response rating” value [2, 22] was 40. The “Velvetleaf plant response rating” value [2, 23] was 10, the “Wheat plant response rating” value [14, 22] was 0 and the “Wheat plant response rating” value [14, 23] was 0. For the same compound, the “Morningglory plant response rating” value [3, 24] was 0, the “Morningglory plant response rating” value [3, 25] was 0 and the “Crabgrass, Large plant response rating” value [4, 22] was 30. The “Crabgrass, Large plant response rating” value [4, 23] was 10, the “Pigweed plant response rating” value [15, 22] was 60 and the “Pigweed plant response rating” value [15, 23] was 50. The “Crabgrass, Large plant response rating” value [5, 24] was 20, the “Crabgrass, Large plant response rating” value [5, 25] was 0 and the “Barnyardgrass plant response rating” value [6, 24] was 0. The “Barnyardgrass plant response rating” value [6, 25] was 0, the “Corn plant response rating” value [16, 22] was 0 and the “Corn plant response rating” value [16, 23] was 0. For the same compound, the “Morningglory plant response rating” value [7, 22] was 60, the “Morningglory plant response rating” value [7, 23] was 30 and the “Velvetleaf plant response rating” value [8, 24] was 0. For the same compound, the “Velvetleaf plant response rating” value [8, 25] was 0.

For `Cc1cc(C(=O)NCC(F)(F)F)nn1Cc1cccc(C(F)(F)F)c1` [Compound 7], the “Barnyardgrass plant response rating” value [1, 20] was 0, the “Barnyardgrass plant response rating” value [1, 21] was 30 and the “Wheat plant response rating” value [9] was 0. The “Foxtail, Giant plant response rating” value [10, 22] was 30, the “Foxtail, Giant plant response rating” value [10, 23] was 0 and the “Corn plant response rating” value [11, 24] was 10. For the same compound, the “Corn plant response rating” value [11, 25] was 0, the “Pigweed plant response rating” value [12, 24] was 90 and the “Pigweed plant response rating” value [12, 25] was 0. The “Foxtail, Giant plant response rating” value [13, 24] was 70, the “Foxtail, Giant plant response rating” value [13, 25] was 10 and the “Velvetleaf plant response rating” value [2, 22] was 40. The “Velvetleaf plant response rating” value [2, 23] was 30, the “Wheat plant response rating” value [14, 22] was 20 and the “Wheat plant response rating” value [14, 23] was 0. The “Morningglory plant response rating” value [3, 24] was 40, the “Morningglory plant response rating” value [3, 25] was 0 and the “Crabgrass, Large plant response rating” value [4, 22] was 40. The “Crabgrass, Large plant response rating” value [4, 23] was 10, the “Pigweed plant response rating” value [15, 22] was 50 and the “Pigweed plant response rating” value [15, 23] was 30. For the same compound, the “Crabgrass, Large plant response rating” value [5, 24] was 90, the “Barnyardgrass plant response rating” value [6, 24] was 40 and the “Barnyardgrass plant response rating” value [6, 25] was 0. For the same compound, the “Corn plant response rating” value [16, 22] was 30, the “Corn plant response rating” value [16, 23] was 10 and the “Morningglory plant response rating” value [7, 22] was 100. The “Morningglory plant response rating” value [7, 23] was 40, the “Velvetleaf plant response rating” value [8, 24] was 10 and the “Velvetleaf plant response rating” value [8, 25] was 0.
